Laboratory results taken from ChEMBL document CHEMBL1201862, “PubChem BioAssay data set” (2004).
The source made the active and inactive calls.

Columns and labels:
H4 = experiment: Luminescence Cell-Based Dose Response HTS to Identify Activators of 5'UTR Stem-Loop Driven Prion Protein mRNA Translation in H4 Neuroglioblastoma Cells. [Related pubchem assays: 1829 (Project Summary), 1814 (Primary HTS)]; assay type: functional; details: Homo sapiens
[1] = target: T1, Oxysterols receptor LXR-beta (Homo sapiens, UniProt P55055); assay type: functional, cell-based;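 also: agonist activity at LXR measured by a cell-based luminescence readout across a dose range, run as a counterscreen for daf-12 agonists; HEK293 cells with Gal4-LXR fusion and GAL4-driven luciferase reporter; potency for activation of Gal4-LXR reporter so compounds are agonists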
T1 sequence (P55055 whole entry): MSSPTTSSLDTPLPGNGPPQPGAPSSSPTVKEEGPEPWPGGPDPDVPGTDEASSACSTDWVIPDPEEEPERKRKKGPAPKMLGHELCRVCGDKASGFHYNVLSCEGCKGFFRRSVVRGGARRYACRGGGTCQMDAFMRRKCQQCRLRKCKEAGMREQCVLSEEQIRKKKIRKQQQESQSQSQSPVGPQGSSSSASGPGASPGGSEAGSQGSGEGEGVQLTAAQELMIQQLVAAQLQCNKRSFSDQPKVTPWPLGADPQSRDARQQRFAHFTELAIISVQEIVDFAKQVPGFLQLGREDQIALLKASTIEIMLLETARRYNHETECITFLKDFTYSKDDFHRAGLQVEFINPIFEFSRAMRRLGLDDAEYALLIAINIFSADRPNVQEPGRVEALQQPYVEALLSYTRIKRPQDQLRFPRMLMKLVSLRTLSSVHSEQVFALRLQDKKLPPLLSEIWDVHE

[2] = Luminescence Cell-Based Dose Response HTS to Identify Activators of Luciferase Translation or Activity in H4 […] Cells. [Related pubchem assays: 1829 (Project Summary), 1814 (Primary HTS)]; assay type: functional
[3] = inhibitors of clade B AD8 Env fusion, dose response, cell-based, cherry-pick (AID 652062); assay type: functional;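 also: luciferase signal from cell-cell fusion driven by HIV-1 clade B AD8 Env; potency is for inhibitors of fusion seen as a drop in luminescence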
[4] = off-target signal loss in HeLa-CEM21 co-culture – HeLa F-luc CTL cells, cherry-picked, counter-screen for HIV-1 Env fusion inhibitor project, dose response (AID 652040); assay type: functional, cell-based;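 also: potency for signal decrease marking cytotoxic or nonspecific inhibition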
[5] = inhibitors of HIV Env-driven cell fusion, dose response, cherry-pick (AID 652057); assay type: functional, cell-based
[6] = ZM109 Env clade C HIV-1 fusion inhibitors, dose response, HeLa effector, CEM target cells, luciferase, cherry-pick (AID 652058); assay type: functional, cell-based
[7] = CRF-BP/CRF-R2 complex antagonists, dose response, cell-based, uHTS hits, 384-well (AID 651639); assay type: functional, Homo sapiens; details: read-out: IC50_Mean
[8] = target: T2, Corticotropin-releasing factor receptor 2/Corticotropin-releasing factor-binding protein (Homo sapiens, UniProt P24387+Q13324); experiment: Dose Response confirmation of uHTS hits for small molecule antagonists of the CRF-binding protein and CRF-R2 receptor complex.; assay type: functional; details: read-out: IC50_Mean
T2 sequence (Q13324 whole entry): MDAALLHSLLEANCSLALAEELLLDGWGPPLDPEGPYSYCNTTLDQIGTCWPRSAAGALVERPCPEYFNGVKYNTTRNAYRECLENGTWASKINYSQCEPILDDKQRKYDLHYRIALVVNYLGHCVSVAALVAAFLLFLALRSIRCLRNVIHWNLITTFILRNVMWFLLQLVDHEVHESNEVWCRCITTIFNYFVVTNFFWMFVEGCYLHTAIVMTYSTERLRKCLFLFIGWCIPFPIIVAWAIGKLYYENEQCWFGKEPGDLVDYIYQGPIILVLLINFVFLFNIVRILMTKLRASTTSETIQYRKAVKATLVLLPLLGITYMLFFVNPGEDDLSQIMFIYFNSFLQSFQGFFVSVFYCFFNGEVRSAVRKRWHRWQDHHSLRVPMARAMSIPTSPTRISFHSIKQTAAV
T2 sequence (P24387 whole entry): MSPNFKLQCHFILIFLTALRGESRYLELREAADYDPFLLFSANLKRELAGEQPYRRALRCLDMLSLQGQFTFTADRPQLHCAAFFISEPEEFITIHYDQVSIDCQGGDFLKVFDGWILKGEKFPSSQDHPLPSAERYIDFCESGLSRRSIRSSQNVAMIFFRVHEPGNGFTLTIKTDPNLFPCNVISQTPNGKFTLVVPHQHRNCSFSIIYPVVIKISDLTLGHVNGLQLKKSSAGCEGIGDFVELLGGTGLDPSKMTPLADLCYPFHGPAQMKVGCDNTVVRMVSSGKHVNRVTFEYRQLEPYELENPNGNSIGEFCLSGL

[9] = target: T2, Corticotropin-releasing factor receptor 2/Corticotropin-releasing factor-binding protein; experiment: activators of CRF receptor 2 with binding protein – uHTS hits, confirmation (AID 602473); assay type: functional; details: read-out: EC50_Mean
[10] = inhibitors of SNCA 5'UTR-driven reporter translation, confirmation, H4 neuroglioma cells, luminescence (AID 1988); assay type: functional, cell-based
[11] = inhibitors of firefly luciferase expression or activity, dose response, H4 neuroglioma cells, luminescence (AID 1990); assay type: functional, cell-based
[12] = cytotoxicity in HEK-293T cells, dose response, cytotoxicity control for TCR NF-kB inhibitor project, luminescence, T-cell screen hits (AID 489026); assay type: functional, cell-based;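 also: cells exposed to compound about 14 hours before the viability readout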
[13] = target: T3, Calpain-2 catalytic subunit (Sus scrofa, UniProt P43367); experiment: pig calpain II inhibitor potency, dose response, biochemical, fluorogenic peptide substrate (AID 1420); assay type: functional
T3 sequence (P43367 whole entry): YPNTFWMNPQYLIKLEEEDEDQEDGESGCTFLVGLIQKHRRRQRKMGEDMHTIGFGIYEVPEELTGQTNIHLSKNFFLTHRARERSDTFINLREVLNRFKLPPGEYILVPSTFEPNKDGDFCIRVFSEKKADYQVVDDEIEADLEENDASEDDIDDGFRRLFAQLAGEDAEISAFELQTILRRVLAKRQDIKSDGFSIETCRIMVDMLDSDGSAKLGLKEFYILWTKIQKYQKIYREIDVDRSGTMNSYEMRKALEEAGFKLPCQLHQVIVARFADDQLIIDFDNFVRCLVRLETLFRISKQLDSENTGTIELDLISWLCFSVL

[14] = Luminescence Cell-Based Dose Response HTS to Identify Inhibitors of 5'UTR Stem-Loop Driven Prion Protein mRNA Translation in H4 Neuroglioblastoma Cells. [Related pubchem assays: 1827 (Project Summary), 1813 (Primary HTS)]; assay type: functional
[15] = target: T4, Methionyl-tRNA synthetase, putative (Trypanosoma brucei brucei, UniProt Q38C91); assay type: functional, Trypanosoma brucei brucei strain 927/4 GUTat10.1
T4 sequence (Q38C91 whole entry): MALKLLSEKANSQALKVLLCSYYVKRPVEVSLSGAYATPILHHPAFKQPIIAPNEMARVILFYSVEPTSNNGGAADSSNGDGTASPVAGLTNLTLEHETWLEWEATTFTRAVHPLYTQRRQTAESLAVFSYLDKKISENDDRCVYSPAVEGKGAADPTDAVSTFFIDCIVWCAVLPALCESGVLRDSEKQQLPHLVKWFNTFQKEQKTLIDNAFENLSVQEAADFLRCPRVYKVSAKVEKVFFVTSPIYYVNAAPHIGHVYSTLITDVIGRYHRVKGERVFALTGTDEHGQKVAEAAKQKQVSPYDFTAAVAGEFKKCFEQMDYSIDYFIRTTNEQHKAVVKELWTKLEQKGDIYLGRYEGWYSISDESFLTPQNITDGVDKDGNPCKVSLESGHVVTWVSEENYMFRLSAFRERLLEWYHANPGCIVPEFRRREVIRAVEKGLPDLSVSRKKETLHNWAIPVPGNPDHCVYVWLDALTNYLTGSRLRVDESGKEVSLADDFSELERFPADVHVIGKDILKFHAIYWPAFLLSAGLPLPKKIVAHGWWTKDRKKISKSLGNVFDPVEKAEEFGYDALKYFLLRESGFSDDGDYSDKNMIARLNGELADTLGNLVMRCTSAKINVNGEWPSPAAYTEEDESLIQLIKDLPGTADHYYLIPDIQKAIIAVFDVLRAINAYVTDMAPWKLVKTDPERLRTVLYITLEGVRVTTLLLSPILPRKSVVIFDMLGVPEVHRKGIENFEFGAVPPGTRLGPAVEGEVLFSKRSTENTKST

[16] = target: T4, Methionyl-tRNA synthetase, putative; assay type: functional, Trypanosoma brucei brucei strain 927/4 GUTat10.1; remark: listed apart in the source
[17] = Counterscreen for inhibitors of Trypanosoma brucei methionyl tRNA synthetase (MetRS): Luminescence-based cell-based high throughput dose response assay to identify compounds that are cytotoxic to Jurkat human T lymphocyte cells.; assay type: functional
[18] = NIH-3T3 fibroblast cytotoxicity, dose response, cytotoxicity control, cell-based, fluorescence, Alamar Blue, secondary assay (AID 2327); assay type: functional;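 also: NIH-3T3 mouse fibroblasts cultured with fluconazole at 8 µg/mL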
[19] = C. albicans growth with fluconazole, confirmation, fluorescence, retest (AID 2467); assay type: functional, cell-based
[20] = target: T5, Microphthalmia-associated transcription factor (Homo sapiens, UniProt O75030); experiment: TRPM1 promoter luciferase signal decrease, dose response, MITF inhibitor project, cell-based, SK-MEL-5, cherry-picked, set 3 (AID 493073); assay type: functional
T5 sequence (O75030 whole entry): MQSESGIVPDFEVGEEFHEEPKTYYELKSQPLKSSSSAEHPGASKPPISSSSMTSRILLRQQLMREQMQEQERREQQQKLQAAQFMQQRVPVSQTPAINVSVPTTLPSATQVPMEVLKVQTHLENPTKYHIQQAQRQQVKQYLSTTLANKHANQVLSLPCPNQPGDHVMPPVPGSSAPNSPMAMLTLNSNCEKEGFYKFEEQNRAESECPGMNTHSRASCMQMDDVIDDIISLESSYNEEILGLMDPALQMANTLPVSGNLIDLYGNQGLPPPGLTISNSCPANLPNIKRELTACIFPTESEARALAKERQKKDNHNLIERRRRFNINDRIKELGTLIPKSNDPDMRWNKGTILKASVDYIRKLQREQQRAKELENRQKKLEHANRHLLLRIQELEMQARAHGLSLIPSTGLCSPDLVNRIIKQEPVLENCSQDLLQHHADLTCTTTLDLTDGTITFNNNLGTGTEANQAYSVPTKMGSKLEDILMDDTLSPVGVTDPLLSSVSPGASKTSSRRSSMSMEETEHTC

C/C(=N\c1ccccc1)c1sc2ccccc2c1O
EC50 (H4): 0.153 µM (active) | EC50 [1]: > 67.6 µM (inactive) | EC50 [2]: 2.22 µM (active)

C[C@H]1CN([C@@H](C)CO)C(=O)c2c(c3ccccc3n2C)-c2ccccc2CO[C@H]1CN(C)C(=O)Nc1cccc(F)c1
AC50 [3]: 2.88 µM (active) | AC50 [4]: 0.362 µM (active) | AC50 [5]: < 0.26 µM (active) | AC50 [6]: < 0.26 µM (active)

Cc1nc2ccccc2n1CCOc1ccc([N+](=O)[O-])cc1
IC50 [7]: 0.972 µM (active) | IC50 [8]: < 0.368 µM (active) | EC50 [9]: > 53 µM (inactive)

O=C(COc1ccc(C(=O)c2ccccc2)cc1)NCc1ccc(F)cc1
EC50 [10]: 7.25 µM (active) | EC50 [11]: > 120 µM (not active) | IC50 [12]: > 80 µM (inactive) | IC50 [13]: > 50 µM (not active) | EC50 [14]: 10 µM (active)

N=C1c2ccccc2CN1CC(=O)c1ccccc1
EC50 (H4): 8 µM (active) | EC50 [1]: > 67.6 µM (inactive) | EC50 [2]: 10.6 µM (active)

O=C(NCC(O)COc1ccc([N+](=O)[O-])cc1)Nc1ccccc1 (stereo not given)
IC50 [15]: 9.32 µM (active) | IC50 [16]: 15.6 µM (inactive) | IC50 [17]: 83.4 µM (inactive)

O=C(NCC(=O)N1CCN(c2ncccn2)CC1)c1ccccc1OC(F)F
AC50 [3]: 13.1 µM (active) | AC50 [4]: 3.72 µM (active) | AC50 [5]: 2.79 µM (active) | AC50 [6]: 2.86 µM (active)

Cc1ccc(-c2cc(-c3ccc(C)cc3)[n+](C)o2)cc1.[O-][Cl+3]([O-])([O-])[O-]
EC50 [18]: > 160 µM (inactive) | EC50 [19]: > 38 µM (not active) | AC50 [20]: 8.24 µM (active)

COc1ccccc1-c1c[nH]c(C(O)c2cc(Cl)cc(Cl)c2)n1 (stereo not given)
IC50 [15]: 2.38 µM (active) | IC50 [16]: 3.26 µM (active) | IC50 [17]: 83.3 µM (inactive)

O=C(CCC(=O)Nc1cccc([N+](=O)[O-])c1)N/N=C/c1cccs1
IC50 [15]: 5.26 µM (active) | IC50 [16]: 8.34 µM (active) | IC50 [17]: 83.3 µM (inactive)

Cc1ccc(C)c(S(=O)(=O)C(C#N)c2nc3ccccc3nc2N2CCOCC2)c1 (stereo not given)
IC50 [7]: > 20 µM (inactive) | IC50 [8]: 39.8 µM (active) | EC50 [9]: 35.8 µM (active)

COc1ccccc1CN(C)C(=O)C(c1ccccc1)c1ccccc1
IC50 [7]: > 20 µM (inactive) | IC50 [8]: 8.1 µM (active) | EC50 [9]: > 53 µM (inactive)

Cc1ccc(C(c2nnnn2CS(=O)(=O)c2ccc(C)cc2)N2CCCC2)cc1 (stereo not given)
AC50 [3]: 2.35 µM (active) | AC50 [4]: 3.97 µM (active) | AC50 [5]: 3.22 µM (active) | AC50 [6]: 3.55 µM (active)

COCCNC(=O)/C(C#N)=C/c1cc(C)n(C2CCCCC2)c1C
EC50 [1]: > 67.5 µM (inactive)
